Measured values taken from patent USRE47302E1 (ONYX THERAPEUTICS INC., priority 2013, dated 2019).
In brackets after ≈: the same amount, converted by molar mass.

Test system: not listed separately
Assay: Solubility pH 7
Settings: pH 7, aqueous buffer
Compound COc1ccc(C[C@H](NC(=O)[C@H](C)NC(=O)CN2CCOCC2)C(=O)N[C@@H](CC2=CCCCC2)C(=O)[C@@]2(C)CO2)cc1 [Compound C-1019, (S)-N-((S)-3-(cyclohex-1-en-1-yl)-1-((R)-2-methyloxiran-2-yl)-1-oxopropan-2-yl)-3-(4-methoxyphenyl)-2-((S)-2-(2-morpholinoacetamido)propanamido)propanamide] has a solubility of 1760 µg/mL (≈ 3.01 mM).
With COc1ccc(C[C@H](NC(=O)[C@H](C)NC(=O)CN2CCOCC2)C(=O)N[C@@H](CC2=CC(C)CC2)C(=O)[C@@]2(C)CO2)cc1 (stereo partly drawn) [Compound C-1122, (2S)-3-(4-methoxyphenyl)-N-((2S)-3-(3-methylcyclopent-1-en-1-yl)-1-((R)-2-methyloxiran-2-yl)-1-oxopropan-2-yl)-2-((S)-2-(2-morpholinoacetamido)propanamido)propanamide] the solubility was 1830 µg/mL (≈ 3.12 mM).
Work on C[C@H](NC(=O)CN1CCOCC1)C(=O)N[C@@H](Cc1ccc2[nH]ccc2c1)C(=O)N[C@@H](CC1CCCC1)C(=O)[C@@]1(C)CO1 [Compound C-1123, (S)-N-((S)-3-cyclopentyl-1-((R)-2-methyloxiran-2-yl)-1-oxopropan-2-yl)-3-(1H-indol-5-yl)-2-((S)-2-(2-morpholinoacetamido)propanamido)propanamide] yielded a solubility of 1470 µg/mL (≈ 2.52 mM).
In the case of C[C@H](NC(=O)CN1CCOCC1)C(=O)N[C@@H](Cc1ccc2cc[nH]c2c1)C(=O)N[C@@H](CC1CCCC1)C(=O)[C@@]1(C)CO1 [Compound C-1124, (S)-N-((S)-3-cyclopentyl-1-((R)-2-methyloxiran-2-yl)-1-oxopropan-2-yl)-3-(1H-indol-6-yl)-2-((S)-2-(2-morpholinoacetamido)propanamido)propanamide], the solubility is reported as 56.5 µg/mL (≈ 0.0971 mM).
With C[C@H](NC(=O)CN1CCOCC1)C(=O)N[C@@H](Cc1ccc(S(C)(=O)=O)cc1)C(=O)N[C@@H](CC1=CCCCC1)C(=O)[C@@]1(C)CO1 [Compound C-1126, (S)-N-((S)-3-(cyclohex-1-en-1-yl)-1-((R)-2-methyloxiran-2-yl)-1-oxopropan-2-yl)-3-(4-(methylsulfonyl)phenyl)-2-((S)-2-(2-morpholinoacetamido)propanamido)propanamide] the solubility was 7280 µg/mL (≈ 11.5 mM).
Work on C[C@H](NC(=O)CN1CCOCC1)C(=O)N[C@@H](CCc1ccccc1)C(=O)N[C@@H](CC1=CCCC1)C(=O)[C@@]1(C)CO1 [Compound C-1128, (S)-N-((S)-3-(Cyclopent-1-en-1-yl)-1-((R)-2-methyloxiran-2-yl)-1-oxopropan-2-yl)-2-((S)-2-(2-morpholinoacetamido)propanamido)-4-phenylbutanamide] yielded a solubility of 1370 µg/mL (≈ 2.47 mM).
With Cc1ccc(C[C@H](NC(=O)[C@H](C)NC(=O)CN2CCOCC2)C(=O)N[C@@H](CC2=CCCCC2)C(=O)[C@@]2(C)CO2)cc1O [Compound C-1130, (S)-N-((S)-3-(cyclohex-1-en-1-yl)-1-((R)-2-methyloxiran-2-yl)-1-oxopropan-2-yl)-3-(3-hydroxy-4-methylphenyl)-2-((S)-2-(2-morpholinoacetamido)propanamido)propanamide] the solubility was 1140 µg/mL (≈ 1.95 mM).
For Cc1cc(C[C@H](NC(=O)[C@H](C)NC(=O)CN2CCOCC2)C(=O)N[C@@H](CC2=CCCC2)C(=O)[C@@]2(C)CO2)ccc1O [Compound C-1131, (S)-N-((S)-3-(cyclopent-1-en-1-yl)-1-((R)-2-methyloxiran-2-yl)-1-oxopropan-2-yl)-3-(4-hydroxy-3-methylphenyl)-2-((S)-2-(2-morpholinoacetamido)propanamido)propanamide], the solubility was 1700 µg/mL (≈ 2.98 mM).
COc1ccc(C[C@H](NC(=O)[C@@H](NC(=O)CN2CCOCC2)C(F)(F)F)C(=O)N[C@@H](CC2=CCCC2)C(=O)[C@@]2(C)CO2)cc1 [Compound C-1132, (R)-N-((S)-1-(((S)-3-(cyclopent-1-en-1-yl)-1-((R)-2-methyloxiran-2-yl)-1-oxopropan-2-yl)amino)-3-(4-methoxyphenyl)-1-oxopropan-2-yl)-3,3,3-trifluoro-2-(2-morpholinoacetamido)propanamide] gave a solubility of 159 µg/mL (≈ 0.254 mM).
Work on C[C@H](NC(=O)CN1CCOCC1)C(=O)N[C@@H](Cc1ccn(C)c(=O)c1)C(=O)N[C@@H](CC1=CCCC1)C(=O)[C@@]1(C)CO1 [Compound C-1137, (S)-N-((S)-3-(cyclopent-1-en-1-yl)-1-((R)-2-methyloxiran-2-yl)-1-oxopropan-2-yl)-3-(1-methyl-2-oxo-1,2-dihydropyridin-4-yl)-2-((S)-2-(2-morpholinoacetamido)propanamido)propanamide] yielded a solubility greater than 10000 µg/mL.
In the case of C#CC[C@H](NC(=O)CN1CCOCC1)C(=O)N[C@@H](Cc1ccc(OC)cc1)C(=O)N[C@@H](CC1=CCCC1)C(=O)[C@@]1(C)CO1 [Compound C-1139, (S)-N-((S)-1-(((S)-3-(Cyclopent-1-en-1-yl)-1-((R)-2-methyloxiran-2-yl)-1-oxopropan-2-yl)amino)-3-(4-methoxyphenyl)-1-oxopropan-2-yl)-2-(2-morpholinoacetamido)pent-4-ynamide], the solubility is reported as 172 µg/mL (≈ 0.289 mM).
COc1ccc(C[C@H](NC(=O)[C@H](C)NC(=O)CN2CCOCC2)C(=O)N[C@@H](CC2=CCCC2)C(=O)[C@@]2(C)CO2)cn1 [Compound C-1140, (S)-N-((S)-3-(cyclopent-1-en-1-yl)-1-((R)-2-methyloxiran-2-yl)-1-oxopropan-2-yl)-3-(6-methoxypyridin-3-yl)-2-((S)-2-(2-morpholinoacetamido)propanamido)propanamide] showed a solubility greater than 10000 µg/mL.
For COc1cc(C[C@H](NC(=O)[C@H](C)NC(=O)CN2CCOCC2)C(=O)N[C@@H](CC2=CCCC2)C(=O)[C@@]2(C)CO2)ccn1 [Compound C-1141, (S)-N-((S)-3-(Cyclopent-1-en-1-yl)-1-((R)-2-methyloxiran-2-yl)-1-oxopropan-2-yl)-3-(2-methoxypyridin-4-yl)-2-((S)-2-(2-morpholinoacetamido)propanamido)propanamide], the solubility was 9010 µg/mL (≈ 15.8 mM).
With COc1ccc(C[C@H](NC(=O)[C@H](C)NC(=O)CN2CCOCC2)C(=O)N[C@@H](C[C@H]2[C@@H]3CCC[C@@H]32)C(=O)[C@@]2(C)CO2)cc1 [Compound C-1142, (S)-N-((S)-3-((1R,5S,6r)-bicyclo[3.1.0]hexan-6-yl)-1-((R)-2-methyloxiran-2-yl)-1-oxopropan-2-yl)-3-(4-methoxyphenyl)-2-((S)-2-(2-morpholinoacetamido)propanamido)propanamide] the solubility was 2340 µg/mL (≈ 4 mM).
Work on COc1ccc(C[C@H](NC(=O)[C@H](C)NC(=O)CN2CCOCC2)C(=O)N[C@@H](Cc2ccc(C#N)cc2)C(=O)[C@@]2(C)CO2)cc1 [Compound C-1163] yielded a solubility of 2460 µg/mL (≈ 4.06 mM).
Work on COc1ccc(C[C@H](NC(=O)[C@H](C)NC(=O)[C@@H]2CCCN2C)C(=O)N[C@@H](Cc2ccccc2)C(=O)[C@@]2(C)CO2)cc1 [Compound C-1165] yielded a solubility of 2150 µg/mL (≈ 3.8 mM).
COc1ccc(C[C@H](NC(=O)[C@H](C)NC(=O)C2COC2)C(=O)N[C@@H](Cc2ccccc2)C(=O)[C@@]2(C)CO2)cc1 [Compound C-1168] gave a solubility of 213 µg/mL (≈ 0.396 mM).
In the case of COc1ccc(C[C@H](NC(=O)[C@H](C)NC(=O)C2CN(C)C2)C(=O)N[C@@H](Cc2ccccc2)C(=O)[C@@]2(C)CO2)cc1 [Compound C-1172, N-((S)-1-(((S)-3-(4-methoxyphenyl)-1-(((S)-1-((R)-2-methyloxiran-2-yl)-1-oxo-3-phenylpropan-2-yl)amino)-1-oxopropan-2-yl)amino)-1-oxopropan-2-yl)-1-methylazetidine-3-carboxamide], the solubility is reported as 1900 µg/mL (≈ 3.46 mM).
COc1ccc(C[C@H](NC(=O)C(C)NC(=O)CN2CCOCC2)C(=O)N[C@H](C(=O)[C@@]2(C)CO2)c2ccccc2)cc1 (stereo partly drawn) [Compound C-1176] gave a solubility of 1890 µg/mL (≈ 3.34 mM).
C[C@H](NC(=O)CN1CCOCC1)C(=O)N[C@@H](CC1CC1)C(=O)N[C@@H](Cc1ccccc1)C(=O)[C@@]1(C)CO1 [Compound C-1224, (S)-3-cyclopropyl-N-((S)-1-((R)-2-methyloxiran-2-yl)-1-oxo-3-phenylpropan-2-yl)-2-((S)-2-(2-morpholinoacetamido)propanamido)propanamide] showed a solubility of 257 µg/mL (≈ 0.5 mM).
In the case of COc1ccc(C[C@H](NC(=O)[C@H](C)NC(=O)CN2CCOCC2)C(=O)N[C@@H](CC(F)(F)F)C(=O)[C@@]2(C)CO2)cc1 [Compound C-1226], the solubility is reported as 3820 µg/mL (≈ 6.67 mM).
In the case of CC#CC[C@H](NC(=O)[C@H](Cc1ccc(OC)cc1)NC(=O)[C@H](C)NC(=O)CN1CCOCC1)C(=O)[C@@]1(C)CO1 [Compound C-1228], the solubility is reported as 682 µg/mL (≈ 1.26 mM).

Molecular target: T1, immunoproteasome subunit LMP7 (Homo sapiens, UniProt P28062)
T1 construct: Lysate from the human acute lymphoblastic leukemia cell line, MOLT-4; endogenous in cells; host or cells: MOLT-4
Assay: Proteasome active-site ELISA (ProCISE), LMP7, MOLT-4 lysate
Format: biochemical
Settings: MOLT4 lysate, 1 h continuous treatment, 25° C.
Procedure: (§1) Test compounds were serially diluted in DMSO at 100× concentration, then diluted to 10× in aqueous hypotonic lysis buffer. Lysate from the human acute lymphoblastic leukemia cell line, MOLT-4, was treated for 1 hour at 25° C. with compound at a final 1× concentration. […] Following, lysate was denatured in guanidine hydrochloride, and subunits bound to probe were isolated with streptavidin-conjugated sepharose beads. Individual subunits (e.g., β5, LMP7, LMP2, MECL-1) were probed with subunit-specific primary antibodies, followed by HRP-conjugated secondary antibodies. A chemiluminescent substrate was used to generate signal associated with HRP binding, which was detected on a plate reader. Luminescent signal was normalized to protein content, then, percent activity calculated relative to DMSO-treated controls to generate IC50 curves.
For COc1ccc(C[C@H](NC(=O)[C@@H](C)NC(=O)[C@H]2CC[C@H](O)CC2)C(=O)N[C@@H](CC2CCCC2)C(=O)[C@@]2(C)CO2)cc1 [Compound C-1064, (1r,4R)-N-((R)-1-(((S)-1-(((S)-3-cyclopentyl-1-((R)-2-methyloxiran-2-yl)-1-oxopropan-2-yl)amino)-3-(4-methoxyphenyl)-1-oxopropan-2-yl)amino)-1-oxopropan-2-yl)-4-hydroxycyclohexanecarboxamide], the IC50 was 60.5 nM.
For COc1ccc([C@@H](O)[C@H](NC(=O)[C@@H](C)NC(=O)[C@H]2CC[C@H](O)CC2)C(=O)N[C@@H](CC2=CCCC2)C(=O)[C@@]2(C)CO2)cc1 [Compound C-1080, (1r,4R)-N-((R)-1-(((2S,3R)-1-(((S)-3-(cyclopent-1-en-1-yl)-1-((R)-2-methyloxiran-2-yl)-1-oxopropan-2-yl)amino)-3-hydroxy-3-(4-methoxyphenyl)-1-oxopropan-2-yl)amino)-1-oxopropan-2-yl)-4-hydroxycyclohexanecarboxamide], the IC50 was 25.2 nM.

Molecular target: T2, proteasome subunit β5 (beta5) (Homo sapiens, UniProt P28074)
T2 construct: Lysate from the human acute lymphoblastic leukemia cell line, MOLT-4; endogenous in cells; host or cells: MOLT-4
Assay: Proteasome active-site ELISA (ProCISE), beta5, MOLT-4 lysate
Format: biochemical
Settings: MOLT4 lysate, human, 1 h continuous treatment, 25° C.
Procedure: as §1
COc1ccc(C[C@H](NC(=O)[C@H](C)NC(=O)CN2CCOCC2)C(=O)N[C@@H](CC2=CCCCC2)C(=O)[C@@]2(C)CO2)cc1 [Compound C-1019, (S)-N-((S)-3-(cyclohex-1-en-1-yl)-1-((R)-2-methyloxiran-2-yl)-1-oxopropan-2-yl)-3-(4-methoxyphenyl)-2-((S)-2-(2-morpholinoacetamido)propanamido)propanamide] showed an IC50 of 9330 nM.
Work on COc1ccc(C[C@H](NC(=O)[C@@H](C)NC(=O)[C@H]2CC[C@H](O)CC2)C(=O)N[C@@H](CC2CCCC2)C(=O)[C@@]2(C)CO2)cc1 [Compound C-1064, (1r,4R)-N-((R)-1-(((S)-1-(((S)-3-cyclopentyl-1-((R)-2-methyloxiran-2-yl)-1-oxopropan-2-yl)amino)-3-(4-methoxyphenyl)-1-oxopropan-2-yl)amino)-1-oxopropan-2-yl)-4-hydroxycyclohexanecarboxamide] yielded an IC50 of 4050 nM.
For COc1ccc([C@@H](O)[C@H](NC(=O)[C@@H](C)NC(=O)[C@H]2CC[C@H](O)CC2)C(=O)N[C@@H](CC2=CCCC2)C(=O)[C@@]2(C)CO2)cc1 [Compound C-1080, (1r,4R)-N-((R)-1-(((2S,3R)-1-(((S)-3-(cyclopent-1-en-1-yl)-1-((R)-2-methyloxiran-2-yl)-1-oxopropan-2-yl)amino)-3-hydroxy-3-(4-methoxyphenyl)-1-oxopropan-2-yl)amino)-1-oxopropan-2-yl)-4-hydroxycyclohexanecarboxamide], the IC50 was 1180 nM.
